Values joined by “and” are separate entries in the source; they are usually repeats but may differ in a detail not shown here. Identical values can stand only once.

A short description of data set [1]: PMIDA solubility in acidified PM mother liquor. The data set is classed as physicochemical. Conditions: commercial batch mother liquor acidified with HCl. On the procedure:
For instance, mother liquor recovered at the end of a commercial scale batch was acidified with HCl in order to have an HCl content approximately equivalent to that found at the end of the PM reaction.
The data in Table 9B indicate that low levels of supersaturation will relieve over time. […] Solubility experiments indicate that the PMIDA solubility limit in acidified ML at 105° C. is between about 6.4 wt % and about 8.5 wt %. As noted in Tables 9A and 9B, equilibrium samples were also taken at various temperatures.

Data set [2] in a line: Equilibrium PMIDA concentration in PM reactor mother liquor (interrupted feed experiments). Type of data set: physicochemical. The settings on record: for Equilibrium PMIDA in PM mother liquor (wt %): 60:40 DSIDA split. As to the method:
PMIDA solubility limits change throughout the PM reaction making supersaturation prediction problematic. Several laboratory experiments were performed at 105° C. using a 60:40 DSIDA split between the hydrolyzer and PM reactor in order to evaluate supersaturation limits during seeding and the initial stages of the crystallization event. The PM feed amounts were altered such that only a portion of the typical feed amounts were used in order to simulate various stages of the PM reaction step. […] It is believed, without being bound to any particular theory, that as NaCl is produced during the PM reaction, and HCl is consumed, PMIDA solubility is suppressed. Table B presents PMIDA solubility in the PM reactor mother liquor at varying amounts of formalin addition.
Several laboratory experiments using an interrupted feed were performed to evaluate supersaturation limits during seeding and the initial stages of the crystallization event. The PM feed amounts were altered such that only a portion of the typical feed amounts were used in order to simulate various stages of the PM reaction step. The first two experiments were designed such that only about 40% of the typical feed amounts were used in order to mimic reactor conditions that occurred during seed addition of early-seeding experiments. These experiments utilized a 60:40 DSIDA split between the hydrolyzer and PM reactor, 43% formalin, and DSIDA1. In the first experiment, a spike of about 0.3% of NMG on a final batch weight basis was added to the reactor following the hydrolysis step. Following the PM reaction, about 6.4% of seed on a final batch weight basis were added after the feeds were completed and a sample was removed. Post-seed samples were removed at 20, 40 and 100 minutes following the seed addition to determine the rate at which supersaturation would be relieved. All of the samples were taken at approximately 105° C. As the temperature decreased, additional samples were taken at 75° C. and 50° C. The first experiment data are in Table 9A below.
In the second experiment, no NMG was added after the hydrolysis step, and seed crystals were not added. Post-feed samples were removed at 0, 60 and 240 minutes following completion of the feed addition. The second experiment data are in Table 9B below.
A third experiment was designed such that only about 70% of the typical feed amounts were used in order to simulate PM reactor conditions when the PMIDA crystallization event typically takes place. The experiment utilized a 60:40 DSIDA split between the hydrolyzer and PM reactor, 37% formalin, and DSIDA1. No NMG was added after the hydrolysis step, and seed crystals were not added. Following the completion of the feeds, the reactor contents were allowed to mix at 105° C. for approximately 21 hours before sampling.
The fourth experiment was designed such that 100% of the typical feed amounts were added to the reactor in order to determine the equilibrium PMIDA solubility of the mother liquor after all of the feeds had been added. This experiment utilized a 60:40 DSIDA split between the hydrolyzer and PM reactor, 37% formalin, and DSIDA1. No NMG was added after the hydrolysis step, and seed crystals were not added. Following completion of the feeds, the reactor contents were allowed to mix at 105° C. for approximately 21 hours before sampling. […] Thus, it is believed, without being bound to any particular theory, that as the PM reaction progresses, supersaturation increase is a function of both PMIDA in situ generation and a decreasing solubility limit.
A fifth experiment was designed to determine the equilibrium mother liquor PMIDA concentration just prior to the crystallization event when a 75:25 DSIDA feed split is used. In addition to the feed split, the experiment used 37% formalin and DSIDA1. No NMG was added after the hydrolysis step, and seed crystals were not added. Mother liquor samples were removed during the course of the experiment. […]

The format of data set [3] is physicochemical. Conditions: room temperature (about 25 °C); mother liquor having a relatively high impurity content. An excerpt:
It has been determined that glyphosine and NMG are more soluble in PMIDA mother liquor than is PMIDA. […] Those solubility limits are higher than the impurity concentration typically encountered in the prior art processes, thus it is believed that it is unlikely that impurity partitioning to the PMIDA wetcake results from solubility considerations such as impurities precipitating from solution onto the forming PMIDA crystal.

In the case of `O=C(O)CN(CC(=O)O)CP(=O)(O)O` [PMIDA, N-(phosphonomethyl)iminodiacetic acid], the “PMIDA Solubility in PM Mother Liquor, PM (wt %)” value in data set [1] (20 °C) amounted to 0.52 wt %; in data set [1] (50 °C), 1.26 wt %; in data set [1] (70 °C), 2.29 wt %; in data set [1] (90 °C), 4.15 wt %; in data set [1] (115 °C), 8.72 wt %. For the same compound, the “Equilibrium PMIDA in PM mother liquor (wt %)” value was 12.6% wt % in data set [2] (40% of total formalin added to PM reactor, 105 °C); 8.6 wt % and 8.6% wt % in data set [2] (70% of total formalin added to PM reactor, 105 °C); 5.9 wt % and 5.9% wt % in data set [2] (100% of total formalin added to PM reactor, 105 °C). The “PM mother liquor PMIDA concentration, averaged equilibrium data” value in data set [2] (105 °C, average of interrupted runs 1 and 2) was “about 16.4 wt %”. Moreover, the “ML PMIDA (wt %), equilibrium” value in data set [2] (PM interrupted run 1 (about 40% of feeds, seeded, NMG spike), equilibrium at 50 °C) is given as 3.3 wt %; in data set [2] (PM interrupted run 1 (about 40% of feeds, seeded, NMG spike), equilibrium at 75 °C) it was 5.3 wt %; in data set [2] (PM interrupted run 1 (about 40% of feeds, seeded, NMG spike), equilibrium at 105 °C), 12.4 wt %; in data set [2] (PM interrupted run 2 (about 40% of feeds, no seed, no NMG), equilibrium at 50 °C), 4.0 wt %; in data set [2] (PM interrupted run 2 (about 40% of feeds, no seed, no NMG), equilibrium at 75 °C), 8.1 wt %; in data set [2] (PM interrupted run 2 (about 40% of feeds, no seed, no NMG), equilibrium at 105 °C), 13.8 wt %. For the same compound, the “ML PMIDA (wt %), equilibrium” value in data set [2] (PM interrupted run 5, 75:25 DSIDA split, 84.0% of total formalin added, equilibrium at 105 °C, about 19 hours) is on record as 14.4 wt %.

Regarding `O=C(O)CN(CP(=O)(O)O)CP(=O)(O)O` [glyphosine, N,N-bis-(phosphonomethyl)glycine], in data set [3], the “solubility limit in PMIDA mother liquor” value was “about 3.9 wt %”.

With `CN(CC(=O)O)CP(=O)(O)O` [NMG, N-methyl-N-(phosphonomethyl)glycine], the “solubility limit in PMIDA mother liquor” value in data set [3] is reported as “about 3.6 wt %”.

Values taken from patent US7705178B2, “Altering the crystal size distribution of N-(phosphonomethyl) iminodiacetic acid for improved filtration and product quality” (priority 2005, dated 2010).
